Measurements reported in ChEMBL document CHEMBL4613209, “Quinolone hybrids and their anti-cancer activities: An overview” (Eur J Med Chem, 2019).

How the values were obtained:
Type in all cases: functional, cell-based
L1210 [1] = assay: Cytotoxicity against mouse L1210 cells assessed as reduction in cell viability
HL-60 [2] = assay: Cytotoxicity against human HL60 cells assessed as reduction in cell viability
CHO = assay: Cytotoxicity against CHO cells assessed as reduction in cell viability; conditions: Cricetulus griseus
Hep 3B2 = assay: Antiproliferative activity against human Hep3B cells after 24 to 72 hrs by MTT assay
SMMC-7721 = assay: Antiproliferative activity against human SMMC7721 cells after 24 to 72 hrs by MTT assay
L1210 [3] = assay: Antiproliferative activity against mouse L1210 cells after 24 to 72 hrs by MTT assay
HL-60 [4] = assay: Antiproliferative activity against human HL60 cells after 24 to 72 hrs by MTT assay

IC50 (SMMC-7721) [µM] | IC50 (L1210 [3]) [µM] | IC50 (HL-60 [4]) [µM] | Structure (SMILES) | IC50 (L1210 [1]) [µM] | IC50 (HL-60 [2]) [µM] | IC50 (CHO) [µM] | IC50 (Hep 3B2) [µM]
– | – | – | COc1cc(/C=N/NC(=O)c2cn(C3CC3)c3cc(N/N=C/c4ccc(O)c(OC)c4)c(F)cc3c2=O)ccc1O | 1.5 to 2.8 | 1.5 to 2.8 | 1.5 to 2.8 | –
– | – | – | O=c1c(-c2nnc(-c3cn(C4CC4)c4cc(N5CCNCC5)c(F)cc4c3=O)o2)cn(C2CC2)c2cc(N3CCNCC3)c(F)cc12 | 0.26 to 14.5 | 0.26 to 14.5 | 0.26 to 14.5 | –
– | – | – | CC1COc2c(N3CCN(C)CC3)c(F)cc3c(=O)c(-c4nnc(-c5cn(C6CC6)c6cc(N7CCN(C)CC7)c(F)cc6c5=O)o4)cn1c23 (stereo not drawn) | 0.26 to 14.5 | 0.26 to 14.5 | 0.26 to 14.5 | –
– | – | – | COc1cc(/C=N/NC(=O)c2cn(C3CC3)c3cc(N/N=C/c4cc(OC)c(OC)c(OC)c4)c(F)cc3c2=O)cc(OC)c1OC | 1.5 to 23.5 | 1.5 to 23.5 | 1.5 to 23.5 | –
– | – | – | CN1CCN(c2cc3c(cc2F)c(=O)c(-c2nnc4sc(-c5cn(C6CC6)c6nc(N7CCN(C)CC7)c(F)cc6c5=O)nn24)cn3C2CC2)CC1 | 0.12 to 5.2 | 0.12 to 5.2 | 0.12 to 5.2 | –
– | – | – | C[C@H]1COc2c(N3CCN(C)CC3)c(F)cc3c(=O)c(-c4nn5c(-c6cn(C7CC7)c7cc(N8CCNCC8)c(F)cc7c6=O)nnc5s4)cn1c23 | 0.12 to 5.2 | 0.12 to 5.2 | 0.12 to 5.2 | –
– | – | – | CC1COc2c(N3CCN(C)CC3)c(F)cc3c(=O)c(-c4nn5c(-c6cn(C7CC7)c7cc(N8CCN(C)CC8)c(F)cc7c6=O)nnc5s4)cn1c23 (stereo not drawn) | 14.2 to 23.7 | 14.2 to 23.7 | 14.2 to 23.7 | –
1.4 to 52.3 | 1.4 to 52.3 | 1.4 to 52.3 | CCn1cc(-c2nnc(SCC(=O)N/N=C/c3ccc(OC)cc3)o2)c(=O)c2cc(F)c(N3CCN(C)CC3)cc21 | – | – | – | 1.4 to 52.3
1.4 to 52.3 | 1.4 to 52.3 | 1.4 to 52.3 | CCn1cc(-c2nnc(SCC(=O)N/N=C/c3ccccc3O)o2)c(=O)c2cc(F)c(N3CCN(C)CC3)cc21 | – | – | – | 1.4 to 52.3
– | – | – | C[C@H]1COc2c(N3CCN(C)CC3)c(F)cc3c(=O)c(-c4nnc(-c5cn(C6CC6)c6cc(N7CCN(C)CC7)c(F)cc6c5=O)o4)cn1c23 | 0.26 to 14.5 | 0.26 to 14.5 | 0.26 to 14.5 | –
– | – | – | O=C(N/N=C/c1ccc(Cl)cc1)c1cn(C2CC2)c2cc(N/N=C/c3ccc(Cl)cc3)c(F)cc2c1=O | 1.5 to 23.5 | 1.5 to 23.5 | 1.5 to 23.5 | –
1.4 to 52.3 | 1.4 to 52.3 | 1.4 to 52.3 | CCn1cc(C(=O)N/N=C/c2ccc(F)cc2)c(=O)c2cc(F)c(N3CCNCC3)cc21 | – | – | – | 1.4 to 52.3
– | – | – | O=C(N/N=C/c1ccc([N+](=O)[O-])cc1)c1cn(C2CC2)c2cc(N/N=C/c3ccc([N+](=O)[O-])cc3)c(F)cc2c1=O | 1.5 to 23.5 | 1.5 to 23.5 | 1.5 to 23.5 | –
1.4 to 52.3 | 1.4 to 52.3 | 1.4 to 52.3 | CCn1cc(C(=O)N/N=C/c2ccc(Cl)cc2)c(=O)c2cc(F)c(N3CCNCC3)cc21 | – | – | – | 1.4 to 52.3
– | – | – | CCN1CCN(c2cc3c(cc2F)c(=O)c(-c2nnc(-c4cn(C5CC5)c5cc(N6CCNCC6)c(F)cc5c4=O)o2)cn3C2CC2)CC1 | 0.26 to 14.5 | 0.26 to 14.5 | 0.26 to 14.5 | –
1.4 to 52.3 | 1.4 to 52.3 | 1.4 to 52.3 | CC1COc2c(N3CCN(C)CC3)c(F)cc3c(=O)c(-c4nnc(SCC(=O)N/N=C/c5ccc(F)cc5)[nH]4)cn1c23 (stereo not drawn) | – | – | – | 1.4 to 52.3
– | – | – | CCN1CCN(c2cc3c(cc2F)c(=O)c(-c2nn4c(-c5cn(C6CC6)c6cc(N7CCNCC7)c(F)cc6c5=O)nnc4s2)cn3C2CC2)CC1 | 0.12 to 5.2 | 0.12 to 5.2 | 0.12 to 5.2 | –
– | – | – | COc1ccccc1/C=N/NC(=O)c1cn(C2CC2)c2cc(N/N=C/c3ccccc3OC)c(F)cc2c1=O | 1.5 to 23.5 | 1.5 to 23.5 | 1.5 to 23.5 | –
1.4 to 52.3 | 1.4 to 52.3 | 1.4 to 52.3 | CCn1cc(C(=O)N/N=C/c2ccccc2)c(=O)c2cc(F)c(N3CCNCC3)cc21 | – | – | – | 1.4 to 52.3
1.4 to 52.3 | 1.4 to 52.3 | 1.4 to 52.3 | CC1COc2c(N3CCN(C)CC3)c(F)cc3c(=O)c(-c4nnc(SCC(=O)N/N=C/c5ccc([N+](=O)[O-])c6c5OCO6)[nH]4)cn1c23 (stereo not drawn) | – | – | – | 1.4 to 52.3
1.4 to 52.3 | 1.4 to 52.3 | 1.4 to 52.3 | CCn1cc(C(=O)N/N=C/c2ccccc2O)c(=O)c2cc(F)c(N3CCNCC3)cc21 | – | – | – | 1.4 to 52.3
1.4 to 52.3 | 1.4 to 52.3 | 1.4 to 52.3 | CCn1cc(-c2nnc(SCC(=O)N/N=C/c3ccccc3C(=O)O)o2)c(=O)c2cc(F)c(N3CCN(C)CC3)cc21 | – | – | – | 1.4 to 52.3
1.4 to 52.3 | 1.4 to 52.3 | 1.4 to 52.3 | CC1COc2c(N3CCN(C)CC3)c(F)cc3c(=O)c(-c4nnc(SCC(=O)N/N=C/c5ccccc5)[nH]4)cn1c23 (stereo not drawn) | – | – | – | 1.4 to 52.3
1.4 to 52.3 | 1.4 to 52.3 | 1.4 to 52.3 | COc1ccc(/C=N/NC(=O)CSc2nnc(-c3cn4c5c(c(N6CCN(C)CC6)c(F)cc5c3=O)OCC4C)[nH]2)cc1 (stereo not drawn) | – | – | – | 1.4 to 52.3
